Reference: patent US6780875B2, “Quinoline-4-carboxamide derivatives as NK-3 and NK-2 receptor antagonists” (SmithKline Beecham S.p.A., priority 1998, dated 2004)
Where a name gives a salt, the structure may show the parent alone.

Row | melting point | SMILES
1 | 98 to 102 °C | CC[C@H](NC(=O)c1c(CN2CCC(N)CC2)c(-c2ccccc2)nc2ccccc12)c1ccccc1 [Example 55, 3-(4-Amino-piperidin-1-ylmethyl)-2-phenyl-quinoline-4-carboxylic acid ((S)-1-phenyl-propyl)-amide]
2 | 158 to 160 °C | CC[C@H](NC(=O)c1c(CN2CCN(CCOCCO)CC2)c(-c2ccccc2)nc2ccccc12)c1ccccc1 [Example 15, 3-{4-[2-(2-Hydroxy-ethoxy)-ethyl]-piperazin-1-ylmethyl}-2-phenyl-quinoline-4-carboxylic acid ((S)-1-phenyl-propyl)-amide]
3 | 240 to 242 °C | CC[C@H](NC(=O)c1c(CN2CCC(N3CCNC3=O)CC2)c(-c2ccccc2)nc2ccccc12)c1ccccc1 [Example 77, 3-[4-(2-Oxo-imidazolidin-1-yl)-piperidin-1-ylmethyl]-2-phenyl-quinoline-4-carboxylic acid ((S)-1-phenyl-propyl)-amide]
4 | 168 to 171 °C | C[C@H](NC(=O)c1c(CN2CCN(CCc3ccccc3)CC2)c(-c2ccccc2)nc2ccccc12)C1CCCCC1 (as salt: HCl) [Example 5, 3-(4-Phenethyl-piperazin-1-ylmethyl)-2-phenyl-quinoline-4-carboxylic acid ((S)-1-cyclohexyl-ethyl)-amide]
5 | 129 to 131 °C | CC[C@H](NC(=O)c1c(CN2CCC3(CC2)CNC(=O)C3)c(-c2ccccc2)nc2ccccc12)c1ccccc1 [Example 63, 3-(3-Oxo-2,8-diaza-spiro[4.5]dec-8-ylmethyl)-2-phenyl-quinoline-4-carboxylic acid ((S)-1-phenyl-propyl)-amide]
6 | 204 to 206 °C | C[C@H](NC(=O)c1c(CN2CCC(n3c(=O)[nH]c4ccccc43)CC2)c(-c2ccccc2)nc2ccccc12)C1CCCCC1
7 | 195 to 197 °C | CC[C@H](NC(=O)c1c(CN2CCC(n3c(=O)[nH]c4ccccc43)CC2)c(-c2ccccc2)nc2ccccc12)c1ccccc1
8 | 196 to 198 °C | CC[C@H](NC(=O)c1c(CN2CCN3CCCC3C2)c(-c2ccccc2)nc2ccccc12)c1ccccc1 (stereo partly drawn) (as salt: HCl) [Example 49, 3-(Hexahydro-pyrrolo[1,2-a]pyrazin-2-ylmethyl)-2-phenyl-quinoline-4-carboxylic acid ((S)-1-phenyl-propyl)-amide]
9 | 158 to 162 °C | CC[C@H](NC(=O)c1c(CN2CCC(N3CCCCC3)CC2)c(-c2ccccc2)nc2cc(O)ccc12)c1ccccc1 [Example 95, 3-[1,4′]Bipiperidinyl-1′-ylmethyl-7-hydroxy-2-phenyl-quinoline-4-carboxylic acid ((S)-1-phenyl-propyl)-amide]
10 | 85 to 100 °C | CC[C@H](NC(=O)c1c(CN2CCC(N3CCN(C)CC3)CC2)c(-c2ccccc2)nc2ccccc12)c1ccccc1 [Example 62, 3-[4-(4-Methyl-piperazin-1-yl)-piperidin-1-ylmethyl]-2-phenyl-quinoline-4-carboxylic acid ((S)-1-phenyl-propyl)-amide]
11 | 157 to 165 °C | CC[C@H](NC(=O)c1c(CN2CCC(N3CCOCC3)CC2)c(-c2ccccc2)nc2ccccc12)c1ccccc1 [Example 19, 3-(4-Morpholin-4-yl-piperidin-1-ylmethyl)-2-phenyl-quinoline-4-carboxylic acid ((S)-1-phenyl-propyl)-amide]
12 | 90 to 95 °C | CC[C@H](NC(=O)c1c(CN2CCC(c3ccccc3)CC2)c(-c2ccccc2)nc2ccccc12)c1ccccc1 [Example 2, 2-Phenyl-3-(4-phenyl-piperidin-1-ylmethyl)-quinoline-4-carboxylic acid ((S)-1-phenyl-propyl)-amide]
13 | 182 to 185 °C | CC[C@H](NC(=O)c1c(CN2CCC(N3CCCCC3)CC2)c(-c2ccccc2)nc2ccccc12)c1ccccc1 (as salt: HCl) [Example 14, 3-[1,4′]Bipiperidinyl-1′-ylmethyl-2-phenyl-quinoline-4-carboxylic acid ((S)-1-phenyl-propyl)-amide]
14 | 208 to 210 °C | CC[C@H](NC(=O)c1c(CN2CCC(N3CCCCC3)CC2)c(-c2ccccc2)nc2cc(OC)ccc12)c1ccccc1 (as salt: hydrochloride) [Example 67, 3-[1,4′]Bipiperidinyl-1′-ylmethyl-7-methoxy-2-phenyl-quinoline-4-carboxylic acid ((S)-1-phenyl-propyl)-amide]
15 | 261 to 263 °C | CC[C@H](NC(=O)c1c(CN2CCN(C3CCCCC3)CC2)c(-c2ccccc2)nc2ccccc12)c1ccccc1 (as salt: HCl) [Example 1, 3-(4-Cyclohexyl-piperazin-1-ylmethyl)-2-phenyl-quinoline-4-carboxylic acid ((S)-1-phenyl-propyl)-amide]
16 | 188 to 195 °C | C[C@H](NC(=O)c1c(CN2CCN(CC(=O)O)CC2)c(-c2ccccc2)nc2ccccc12)C1CCCCC1 [Example 92, {4-[4-((S)-1-Cyclohexyl-ethylcarbamoyl)-2-phenyl-quinolin-3-ylmethyl]-piperazin-1-yl}-acetic acid]
17 | 180 to 184 °C | C[C@H](NC(=O)c1c(CN2CCC(N3CCCCC3)CC2)c(-c2ccccc2)nc2ccccc12)C1CCCCC1 (as salt: hydrochloride) [Example 13, 3-[1,4′]Bipiperidinyl-1′-ylmethyl-2-phenyl-quinoline-4-carboxylic acid ((S)-1-cyclohexyl-ethyl)-amide]
18 | 117 to 119 °C | CC[C@H](NC(=O)c1c(CN2CCN(C(C)=O)CC2)c(-c2ccccc2)nc2ccccc12)c1ccccc1 [Example 23, 3-(4-Acetyl-piperazin-1-ylmethyl)-2-phenyl-quinoline-4-carboxylic acid ((S)-1-phenyl-propyl)-amide]

Further lines, the compound ahead of its results:

Row | SMILES | melting point
19 | CNC(=S)N1CCN(Cc2c(-c3ccccc3)nc3ccccc3c2C(=O)N[C@@H](C)C2CCCCC2)CC1 [Example 75, 3-(4-Methylthiocarbamoyl-piperazin-1-ylmethyl)-2-phenyl-quinoline-4-carboxylic acid ((S)-1-cyclohexyl-ethyl)-amide] | 204 to 206 °C
20 | C[C@H](NC(=O)c1c(CN2CCN(C(=O)Cc3c[nH]cn3)CC2)c(-c2ccccc2)nc2ccccc12)C1CCCCC1 | 178 to 210 °C
21 | CCN(CC)CCC(=O)N1CCN(Cc2c(-c3ccccc3)nc3ccccc3c2C(=O)N[C@@H](C)C2CCCCC2)CC1 [Example 47, 3-[4-(3-Diethylamino-propanoyl)-piperazin-1-ylmethyl]-2-phenyl-quinoline-4-carboxylic acid ((S)-1-cyclohexyl-ethyl)-amide] | 104 to 106 °C
22 | C[C@H](NC(=O)c1c(CN2CCN(C3=NCCS3)CC2)c(-c2ccccc2)nc2ccccc12)C1CCCCC1 [Example 74, 3-[4-(4,5-Dihydro-thiazol-2-yl)-piperazin-1-ylmethyl]-2-phenyl-quinoline-4-carboxylic acid ((S)-1-cyclohexyl-ethyl)-amide] | 174 to 176 °C
23 | COCCN(CCOC)Cc1c(-c2ccccc2)nc2ccccc2c1C(=O)N[C@@H](C)C1CCCCC1 [Example 58, 3-{[Bis-(2-methoxy-ethyl)-amino]-methyl}-2-phenyl-quinoline-4-carboxylic acid ((S)-1-cyclohexyl-ethyl)-amide] | 114 to 115 °C
24 | CC(C)[C@H](NC(=O)c1c(CN2CCN(C(=O)c3ccccc3C(=O)O)CC2)c(-c2ccccc2)nc2ccccc12)c1ccccc1 [Example 86, 2-(1-{4-[4-((S)-2-Methyl-1-phenyl-propylcarbamoyl)-2-phenyl-quinolin-3-ylmethyl]-piperazin-1-yl}-methanoyl)-benzoic acid] | 189 to 191 °C
25 | CC(C)C(=O)N1CCN(Cc2c(-c3ccccc3)nc3ccccc3c2C(=O)N[C@@H](C)C2CCCCC2)CC1 [Example 25, 3-[4-(2-Methyl-propanoyl)-piperazin-1-ylmethyl]-2-phenyl-quinoline-4-carboxylic acid ((S)-1-cyclohexyl-ethyl)-amide] | 149 to 151 °C
26 | C[C@H](NC(=O)c1c(CN2CCN(C(=O)CCC(=O)O)CC2)c(-c2ccccc2)nc2ccccc12)C1CCCCC1 [Example 83, 4-{4-[4-((S)-1-Cyclohexyl-ethylcarbamoyl)-2-phenyl-quinolin-3-ylmethyl]-piperazin-1-yl}-4-oxo-butyric acid] | 208 to 209 °C
27 | COCCN1CCN(Cc2c(-c3ccccc3)nc3ccccc3c2C(=O)N[C@@H](C)C2CCCCC2)CC1 [Example 17, 3-[4-(2-Methoxy-ethyl)-piperazin-1-ylmethyl]-2-phenyl-quinoline-4-carboxylic acid ((S)-1-cyclohexyl-ethyl)-amide] | 113 to 115 °C
28 | C[C@H](NC(=O)c1c(CN2CCN(C(=C[N+](=O)[O-])N3CCCC3)CC2)c(-c2ccccc2)nc2ccccc12)C1CCCCC1 [Example 81, 3-[4-(2-Nitro-1-pyrrolidin-1-yl-vinyl)-piperazin-1-ylmethyl]-2-phenyl-quinoline-4-carboxylic acid ((S)-1-cyclohexyl-ethyl)-amide] | 164 to 165 °C
29 | C[C@H](NC(=O)c1c(CN2CCN(C(=NC#N)N3CCCC3)CC2)c(-c2ccccc2)nc2ccccc12)C1CCCCC1 [Example 76, 3-[4-(1-Cyanoimino-1-pyrrolidin-1-yl-methyl)-piperazin-1-ylmethyl]-2-phenyl-quinoline-4-carboxylic acid ((S)-1-cyclohexyl-ethyl)-amide] | 154 to 155 °C
30 | C[C@H](NC(=O)c1c(CN2CCC3(CC2)OCCO3)c(-c2ccccc2)nc2ccccc12)C1CCCCC1 [Example 61, 3-(1,4-Dioxa-8-aza-spiro[4.5]dec-8-ylmethyl)-2-phenyl-quinoline-4-carboxylic acid ((S)-1-cyclohexyl-ethyl)-amide] | 184 to 185 °C
31 | CC(C)N1CCN(Cc2c(-c3ccccc3)nc3ccccc3c2C(=O)N[C@@H](C)C2CCCCC2)CC1 (as salt: hydrochloride) [Example 4, 3-(4-Isopropyl-piperazin-1-ylmethyl)-2-phenyl-quinoline-4-carboxylic acid ((S)-1-cyclohexyl-ethyl)-amide] | 180 to 183 °C
